Results taken from patent US7998713B2, “Treatment of biomass to obtain ethanol” (E. I. du Pont de Nemours and Company, priority 2005, dated 2011).

Test system: Z. mobilis strain 8b
Test: Effect of acetamide and acetic acid on Zymomonas growth (toxicity test in shake flasks)
Assay type: cell-based, Zymomonas mobilis
Details: pH 6.0, 30° C., 150 rpm, FIG. 1
Description: Fermentation medium was composed of 10 g/L yeast extract, 2 g/L KH2PO4, 70 g/L glucose, 40 g/L xylose and 0.1 M MES buffer.

[1] = medium supplemented with 6 g/L acetamide vs unsupplemented control
[2] = medium supplemented with 7.2 g/L acetic acid vs unsupplemented control

Row | Structure (SMILES) | final density of Z. mobilis [1] | growth rate of Z. mobilis [1] | cell yield (as measured by dry cell mass) [2] | growth rate of Z. mobilis [2]
1 | CC(N)=O [acetamide] | no influence | no influence |  | 
2 | CC(=O)O [acetic acid] |  |  | lower cell yield | reduced growth rate
